Test results: US20140363889A1, “METHOD FOR PRODUCING MULTIPOLAR CELL” (TOAGOSEI CO., LTD., priority 2011, published 2014)

What was measured:
Format in all cases: cell-based
[1] = system: human alveolar basal epithelial adenocarcinoma cells, A549; assay: Multipolarity-inducing activity assay 3 (A549 cells synchronized in G2 phase (or M phase)); conditions: 10 μM peptide, number of M-phase cells 100
Experimental: Some of the sample peptides obtained in Example 1 were tested for multipolarity-inducing activity against target cultured tumor cells. As the tumor cells tested, cells forming a […] (human alveolar basal epithelial adenocarcinoma cells, A549) were used. The cell line was cultured in the same manner as Example 2 described above. The resulting cultured tumor cells were synchronized in the G2 phase (or M phase) in the same manner as Example 3 described above. Similarly to Examples 2 and 3 described above (the number of M-phase cells was 100 herein), the presence of multipolarity was observed by immunofluorescence under fluorescence microscope.

[2] = system: HeLa cell line (HeLa S3); assay: Multipolarity-inducing activity assay 2 (cells synchronized in G2 phase (or M phase) by nocodazole); conditions: 10 μM peptide, 4 hours with peptide + 2 hours without; for Multipolar level (%): % multipolar cells relative to M-phase cells; for Number of multipolar cells: count among 60 M-phase cells
Experimental: The same sample peptides as those used in Example 2 above were used and tested for multipolarity-inducing activity against cultured tumor cells synchronized in the G2 phase (or M phase). Details of the assay are as described below.
As the tumor cells tested, a HeLa cell line (HeLa S3) was used. The cell line was cultured under the same conditions as Example 2 and seeded at about 3×10^4 cells per well in an 8-well slide glass. Thymidine was added to the culture medium to a final concentration of 2.5 mM. Incubation was carried out at 37° C. under 5% CO2 for 18 hours. The culture medium was exchanged to remove thymidine and incubation was carried out for 6 more hours. Subsequently, nocodazole was added to a final concentration of 0.1 μg/mL and incubation was carried out for 16 hours. By such addition of nocodazole, the cells being cultured were synchronized in the G2 phase (M phase) of the cell cycle.
After the 16 hours of incubation, without exchanging the culture medium (i.e. with nocodazole being contained), one of the sample peptides was added to each well to a peptide concentration in the well of 10 μM and incubation was carried out for 4 hours. Subsequently, the culture medium was exchanged and incubation was continued for 2 more hours without nocodazole or the sample peptide.
After the 2 hours of incubation, in the same manner as Example 2, the presence of multipolarity was observed by immunofluorescence under fluorescence microscope.

[3] = system: HeLa cell line (HeLa S3); assay: Multipolarity-inducing activity assay 1 (cells synchronized in G1 phase by double thymidine block); conditions: 10 μM peptide, 6 hours incubation; for Multipolar level (%): % multipolar cells relative to M-phase cells; for Number of multipolar cells: count among the M-phase cells observed
Experimental: Some of the sample peptides obtained in Example 1 were tested for multipolarity-inducing activity against target cultured tumor cells. Details of the assay are as described below.
As the tumor cells tested, a HeLa cell line (HeLa S3) was used. The cell line was cultured beforehand in a DMEM medium (i.e. Dulbecco MEM medium (DMEM medium, a Gibco product) containing 10% fetal bovine serum (FBS, a Gibco product), 2 mM of L-glutamine, 50 unit/mL of penicillin, and 50 μg/mL of streptomycin), and seeded at about 3×10^4 cells per well in an 8-well slide glass. Thymidine was added to the culture medium to a final concentration of 2.5 mM. Incubation was carried out at 37° C. under 5% CO2 for 16 hours. The culture medium was exchanged to remove thymidine and incubation was carried out for 8 more hours. Subsequently, thymidine was added again to a final concentration of 2.5 mM and incubation was carried out for 16 hours.
By such double thymidine block, the cells being cultured were synchronized in the G1 phase of the cell cycle. After such synchronization treatment, the culture medium was exchanged to remove thymidine and incubation was carried out for 2 more hours. Subsequently, one of the sample peptides was added to each well. In this example, one of Samples 1, 4, 5, 7, 9 and 11 was added to a peptide concentration in the well of 10 μM.
After a sample peptide was added as described above, the 8-well slid glass was incubated under the aforementioned conditions for 6 hours.
After 6 hours of incubation, the presence of multipolarity was observed by immunofluorescence under fluorescence microscope. In particular, after 6 hours of incubation following the addition of a sample peptide, the cultured cells were subjected to nuclear staining with DAPI (4′,6-diamidino-2-phenylindole), and using α-tubulin as a marker for spindles, the cells were tested for the presence of tubulin (i.e. the presence of spindles) by immunofluorescence with an anti-tubulin antibody (primary antibody) to identify the tubulin and a fluorescent dye (ALEXA FLUOR(registered trademark) 555)-labeled secondary antibody to identify the primary antibody. In addition, using centrin-2 as a marker for centrosomes (centrioles), the cells were tested for the presence of centrin-2 (i.e. the presence of centrosomes) by immunofluorescence with an anti-centrin-2 antibody (primary antibody) to identify the centrin-2 and a fluorescent dye-labeled secondary antibody to identify the primary antibody.

Row | Sequence | Multipolar level (%) [1] | Multipolar level (%) [2] | Number of multipolar cells [2] | Multipolar level (%) [3] | Number of multipolar cells [3]
1 | GPHLGMNQRRRP [Sample 9] | 27% | 55.0% | 33 | 10.4% | 11
2 | TPSLPPTMFRLT [Sample 3] | 32% |  |  |  | 
3 | NMTTYPMHNNTV [Sample 6] | 32% |  |  |  | 
4 | QSPVNHHYHYHI [Sample 5] | 34% | 41.7% | 25 | 10.8% | 12
5 | EFEYFHPATFRL [Sample 8] | 26% |  |  |  | 
6 | SLLPHSNHAKHY [Sample 7] | 28% | 43.3% | 26 | 13.0% | 13
7 | SVSVGMKPSPRPKKRTLRKNDRKKR [Sample 11] | 32% | 41.7% | 25 | 12.7% | 13
8 | GAVTYSRISGQY [Sample 10] | 29% |  |  |  | 
9 | SVSVGMKPSPRP [Sample 1] | 30% | 40.0% | 24 | 11.5% | 12
10 | GPHHYWYHLRLP [Sample 4] | 28% | 48.3% | 29 | 13.6% | 14
11 | NMTTYPMHNNTVKKRTLRKNDRKKR [Sample 16] | 33% |  |  |  | 
